The values below come from patent publication US20110039763A1, “TARGETED ANTIMICROBIAL MOIETIES” (C3 JIAN, INC., priority 2009, published 2011).

Entries after “also recorded” stand apart in the source; their conditions may differ.

In experiment [1] the test system is microorganisms. The experiment in a line: Morphology, biofilm and growth disrupting peptides (Table 5). It counts as cell-based. Details: key: A: Peptide aggregates; B: Less hyphal formation; Clumps; Diffuse clumps and small polyps; F: Diffuse growth; H: Thin; I: Growth inhibition; Microcolony formation; Rippled; Small polyps; Thick; W: Halo formation on top, microlonies on bottom. From the text: In certain embodiments peptides that induce alterations in phenotype or other biological activities can also be used as antimicrobial effector moieties.

The test system of experiment [2] is microorganisms. The experiment in a line: Targeting peptide binding to target microorganisms (Tables 3, 10, 12). As to conditions: microorganism(s) the targeting peptide binds; binding in aqueous buffers varied with peptide solubility, preferably 1x PBS.
Experiment [3] deals with microorganisms. Nature of the experiment: Peptide activities: targeting/binding, antimicrobial, growth or phenotype altering (Tables 7, 8). The class given is cell-based. The settings on record: peptides having multiple activities.

With “PF-761: peptide having multiple activities (SKFELVNYASGCSCGADCKCASETECKCASKK; Peptide with targeting and/or antimicrobial activity)”, the “Organism, effect” value in the experiment on microorganisms [1] (E. coli) is given as “E. coli (C)”; with microorganisms [1] (M. luteus), “M. luteus (C)”; in the experiment with microorganisms [1] (MRSA), “MRSA (D)”; in the experiment on microorganisms [1] (P. aeruginosa), “P. aeruginosa (C)”; in the experiment on microorganisms [1] (S. epidermidis) it was “S. epidermidis (C)”; in the experiment on microorganisms [1] (S. mutans) it was “S. mutans (D)”. For the same substance, in the experiment on microorganisms [1] (S. pneumoniae), the “Organism, effect” value is “S. pneumoniae (C)”. Further, in the experiment on microorganisms [2], the “Target(s)” value was “S. epidermidis and M. luteus and P. mirabilis and P. aeruginosa and C. albicans and MRSA and S. pneumoniae and E. faecalis”. Besides, in the experiment on microorganisms [3], the Activities result was “G B”.
Consider “PF-762: peptide having multiple activities (PAPAPSAPAPAPEQPEQPA; Peptide with targeting and/or antimicrobial activity)”, for which the “Organism, effect” value in the experiment with microorganisms [1] (S. pneumoniae) was “S. pneumoniae (H)”. Further, the “Target(s)” value in the experiment with microorganisms [2] was “M. luteus; also recorded: C. albicans”. The Activities entry in the experiment with microorganisms [3] is listed as “G B”.
For the substance “PF-764: peptide having multiple activities (GYFEPGKRD; Peptide with targeting and/or antimicrobial activity)”, the “Organism, effect” value is listed as “MRSA (D)” in the experiment with microorganisms [1] (MRSA) and “S. pneumoniae (H)” with microorganisms [1] (S. pneumoniae). The “Target(s)” value with microorganisms [2] is “S. epidermidis and M. luteus and C. albicans and MRSA and S. pneumoniae and E. faecalis and C. jeikeium”. Besides, in the experiment with microorganisms [3], the Activities entry was “G B”.
With “PF-776: peptide having multiple activities (VSILLYLSATIILPNVLRLLVARAIIVRV; Peptide with targeting and/or antimicrobial activity)”, the “Organism, effect” value is reported as “E. coli (C)” in the experiment on microorganisms [1] (E. coli); “M. luteus (C)” with microorganisms [1] (M. luteus); “MRSA (D)” in the experiment on microorganisms [1] (MRSA); “S. epidermidis (D)” with microorganisms [1] (S. epidermidis); “S. mutans (D)” with microorganisms [1] (S. mutans); “S. pneumoniae (C)” with microorganisms [1] (S. pneumoniae). Further, the “Target(s)” value in the experiment on microorganisms [2] is “S. epidermidis and M. luteus and P. mirabilis and C. albicans and MRSA and S. pneumoniae and E. faecalis”. For the same substance, the Activities result with microorganisms [3] was “G B”.
“PF-C052: peptide having multiple activities (SRFRNGV; Peptide with targeting and/or antimicrobial activity)”: the “Organism, effect” value with microorganisms [1] (P. gingivalis) is recorded as “P. gingivalis (H)”. Also, the “Target(s)” value with microorganisms [2] is given as “A. naeslundii; also recorded: F. nucleatum; also recorded: S. mutans”. Further, the Activities entry with microorganisms [3] is recorded as “G B”.
For the substance “PF-C055: peptide having multiple activities (YNLSIYIYFLHTITIAGLITLPFII; Peptide with targeting and/or antimicrobial activity)”, the “Organism, effect” value is listed as “F. nucleatum (T)” with microorganisms [1] (F. nucleatum) and “S. mutans (I)” with microorganisms [1] (S. mutans). Moreover, the “Target(s)” value with microorganisms [2] was “A. naeslundii; also recorded: F. nucleatum; also recorded: P. gingivalis; also recorded: S. mutans”. In addition, the Activities result with microorganisms [3] was “G B”.
For the substance “PF-C057: peptide having multiple activities (YFWWYWVQDCIPYKNNEVWLELSNNMK; Peptide with targeting and/or antimicrobial activity)”, the “Organism, effect” value in the experiment with microorganisms [1] (S. mutans) is “S. mutans (I)”. For the same substance, the “Target(s)” value in the experiment with microorganisms [2] is given as “A. naeslundii; also recorded: F. nucleatum; also recorded: P. gingivalis; also recorded: S. mutans”. Also, in the experiment with microorganisms [3], the Activities entry is on record as “G B”.
Turning to “PF-C062: peptide having multiple activities (PLARATEVVATLFIICSLLLYLTR; Peptide with targeting and/or antimicrobial activity)”, the figures for the “Organism, effect” value with microorganisms [1] (F. nucleatum) and in the experiment on microorganisms [1] (S. mutans) were “F. nucleatum (T)” and “S. mutans (I)”, respectively. Besides, the “Target(s)” value with microorganisms [2] is recorded as “A. naeslundii; also recorded: F. nucleatum; also recorded: P. gingivalis; also recorded: S. mutans; also recorded: T. denticola”. For the same substance, the Activities entry in the experiment on microorganisms [3] was “G B”.
“PF-C064: peptide having multiple activities (DEEALEMGANLYAQFAIDFLNSKK; Peptide with targeting and/or antimicrobial activity)”: in the experiment with microorganisms [1] (F. nucleatum), the “Organism, effect” value is recorded as “F. nucleatum (T)”. For the same substance, the “Target(s)” value in the experiment with microorganisms [2] is given as “A. naeslundii; also recorded: F. nucleatum; also recorded: P. gingivalis; also recorded: S. mutans; also recorded: T. denticola”. Besides, the Activities result in the experiment with microorganisms [3] was “G B”.
The like results for “PF-C069: peptide having multiple activities (NALMLREMQLAKNIKVEVTDVLSNKKYC; Peptide with targeting and/or antimicrobial activity)” were, in that order, “F. nucleatum (T)”, “A. naeslundii; also recorded: F. nucleatum; also recorded: P. gingivalis; also recorded: S. mutans; also recorded: T. denticola” and “G B”.
For the substance “PF-C071: peptide having multiple activities (QVIVKIL; Peptide with targeting and/or antimicrobial activity)”, the “Organism, effect” value in the experiment on microorganisms [1] (F. nucleatum) is listed as “F. nucleatum (T)”. For the same substance, the “Target(s)” value in the experiment with microorganisms [2] was “A. naeslundii; also recorded: F. nucleatum; also recorded: S. mutans”. The Activities entry in the experiment on microorganisms [3] is “G B”.
Take “PF-C075: peptide having multiple activities (KALVISVFAIVFSIIFVKFFYWRDKK; Peptide with targeting and/or antimicrobial activity)”: the “Organism, effect” value is “F. nucleatum (T)” in the experiment on microorganisms [1] (F. nucleatum), “P. gingivalis (R)” in the experiment on microorganisms [1] (P. gingivalis) and “S. mutans (F)” in the experiment on microorganisms [1] (S. mutans). Moreover, the “Target(s)” value in the experiment with microorganisms [2] is on record as “A. naeslundii; also recorded: F. nucleatum; also recorded: P. gingivalis; also recorded: S. mutans; also recorded: T. denticola”. For the same substance, the Activities entry in the experiment on microorganisms [3] is given as “G B”.
In the same order, the values of “PF-C084: peptide having multiple activities (FFSVIFLFGLNYLICNSPLFNILR; Peptide with targeting and/or antimicrobial activity)” are “F. nucleatum (T)”, “P. gingivalis (R)”, “S. mutans (F)”, “A. naeslundii; also recorded: F. nucleatum; also recorded: P. gingivalis; also recorded: S. mutans” and “G B”.
The like results for “PF-C088: peptide having multiple activities (DIANNILNSVSERLIIA; Peptide with targeting and/or antimicrobial activity)” were, in that order, “F. nucleatum (H)”, “P. gingivalis (R)”, “S. mutans (I)”, “A. naeslundii; also recorded: F. nucleatum; also recorded: P. gingivalis; also recorded: S. mutans; also recorded: T. denticola” and “G B”.
Turning to “PF-C131: peptide having multiple activities (chain 1 QWIVAKREIRMHIYCHISVIHVIIFFG; chain 2 QWIVAKREIRMHIYCHISVIHVIIFFG; Peptide with targeting and/or antimicrobial activity)”, the “Organism, effect” value in the experiment with microorganisms [1] (F. nucleatum) is recorded as “F. nucleatum (T)”; with microorganisms [1] (S. mutans), “S. mutans (F)”. The “Target(s)” value in the experiment on microorganisms [2] is “A. naeslundii; also recorded: F. nucleatum; also recorded: P. gingivalis; also recorded: S. mutans”. Moreover, the Activities entry with microorganisms [3] is reported as “G B”.
Turning to “PF-C136: peptide having multiple activities (chain 1 LILSYQASVYPLFAYLCQQKDY; chain 2 LILSYQASVYPLFAYLCQQKDY; Peptide with targeting and/or antimicrobial activity)”, the “Organism, effect” value in the experiment with microorganisms [1] (F. nucleatum) is “F. nucleatum (C)”; in the experiment on microorganisms [1] (P. gingivalis), “P. gingivalis (R)”. Further, the “Target(s)” value in the experiment with microorganisms [2] is reported as “A. naeslundii; also recorded: F. nucleatum; also recorded: P. gingivalis; also recorded: S. mutans; also recorded: T. denticola”. The Activities result in the experiment with microorganisms [3] is recorded as “G B”.
With “PF-C137: peptide having multiple activities (chain 1 QRMYWFKRGFETGDFSAGDTFAELK; chain 2 QRMYWFKRGFETGDFSAGDTFAELK; Peptide with targeting and/or antimicrobial activity)”, the “Organism, effect” value in the experiment on microorganisms [1] (F. nucleatum) is “F. nucleatum (T)”. Further, the “Target(s)” value in the experiment on microorganisms [2] is reported as “A. naeslundii; also recorded: F. nucleatum; also recorded: P. gingivalis; also recorded: S. mutans”. Besides, in the experiment with microorganisms [3], the Activities entry was “G B”.
For the substance “PF-C139: peptide having multiple activities (chain 1 LLASHPERLSLGVFFVYRVLHLLLENT; chain 2 LLASHPERLSLGVFFVYRVLHLLLENT; Peptide with targeting and/or antimicrobial activity)”, the “Organism, effect” value with microorganisms [1] (S. mutans) is listed as “S. mutans (F)”. Moreover, the “Target(s)” value in the experiment on microorganisms [2] is “A. naeslundii; also recorded: F. nucleatum; also recorded: P. gingivalis; also recorded: S. mutans; also recorded: T. denticola”. In addition, in the experiment on microorganisms [3], the Activities entry is “G B”.
In the same order, the values of “PF-C142: peptide having multiple activities (chain 1 DFPPLSFFRRRFHAYTAPIDNFFGANPF; chain 2 DFPPLSFFRRRFHAYTAPIDNFFGANPF; Peptide with targeting and/or antimicrobial activity)” are “S. mutans (I)”, “A. naeslundii; also recorded: F. nucleatum; also recorded: P. gingivalis; also recorded: S. mutans; also recorded: T. denticola” and “G B”.
In the case of “PF-C143: peptide having multiple activities (chain 1 VVFGGGDRLV; chain 2 VVFGGGDRLV; Peptide with targeting and/or antimicrobial activity)”, the “Organism, effect” value with microorganisms [1] (F. nucleatum) is given as “F. nucleatum (C)”. Also, the “Target(s)” value in the experiment on microorganisms [2] is listed as “A. naeslundii; also recorded: F. nucleatum; also recorded: P. gingivalis; also recorded: S. mutans; also recorded: T. denticola”. Also, the Activities result with microorganisms [3] is on record as “G B”.
